# Assay results taken from patent US7745575B1 (Cellpep Pharma Inc., priority 2004, dated 2010).
# Bridge positions count the residues as written; N and C are the ends. Peptide text beside a SMILES is read from it.
# Assay: toxicity in vivo, LD50 after intracerebroventricular injection
# Conditions: mouse, icv or intrathecal, 20 g C57/BL6 mice
# Procedure: Groups of six to eight mice per dose were injected with 5 μl peptide solution containing 0.1% (w/v) bovine serum albumin and 0.9% (w/v) NaCl. The LD50 values are set out in Table 5.
row,Structure (SMILES),LD50 [mg/kg]
1,CC[C@H](C)[C@@H]1NC(=O)[C@H](CCCCN)NC(=O)[C@@H](NC(=O)[C@H](CCCCN)NC(=O)[C@@H](NC(=O)[C@H](CC(N)=O)NC(=O)[C@@H](NC(=O)[C@@H](NC(=O)[C@@H](NC(=O)CN)C(C)C)[C@@H](C)CC)[C@@H](C)CC)C(C)C)CSSC[C@@H]2NC(=O)[C@H](CCCCN)NC(=O)CNC(=O)[C@H](Cc3ccccc3)NC(=O)[C@H](CCCNC(=N)N)NC(=O)[C@H](CCSC)NC(=O)CNC(=O)[C@H](C)NC(=O)[C@H](CC(=O)O)NC(=O)[C@H](CCCCN)NC(=O)[C@@H]3CSSC[C@@H](C(=O)N[C@H](C(=O)N4CCC[C@H]4C(=O)N[C@@H](CCCCN)C(=O)O)[C@@H](C)O)NC(=O)[C@H](Cc4c[nH]cn4)NC(=O)[C@H](CSSC[C@H](NC(=O)[C@H](CCC(N)=O)NC(=O)[C@H](CCCNC(=N)N)NC(=O)[C@H](CO)NC1=O)C(=O)N[C@@H](CC(C)C)C(=O)N[C@@H](CCCCN)C(=O)N1CCC[C@H]1C(=O)N3)NC(=O)[C@H](CCCCN)NC(=O)[C@H](CCCNC(=N)N)NC(=O)[C@H](CC(N)=O)NC(=O)[C@H](CCSC)NC2=O,0.005
2,"CC[C@H](C)[C@@H]1NC(=O)[C@H](CCCCN)NC(=O)[C@@H](NC(=O)[C@H](CCCCN)NC(=O)[C@@H](NC(=O)[C@H](CC(N)=O)NC(=O)[C@@H](NC(=O)[C@@H](NC(=O)[C@@H](NC(=O)CNC(C)=O)C(C)C)[C@@H](C)CC)[C@@H](C)CC)C(C)C)CSSC[C@@H]2NC(=O)[C@H](CCCCN)NC(=O)CNC(=O)[C@H](Cc3ccccc3)NC(=O)[C@H](CCCNC(=N)N)NC(=O)[C@H](CCSC)NC(=O)CNC(=O)[C@H](C)NC(=O)[C@H](CC(=O)O)NC(=O)[C@H](CCCNC(=N)N)NC(=O)[C@@H]3CSSC[C@@H](C(=O)N[C@H](C(=O)N4CCC[C@H]4C(=O)N[C@@H](CCCCN)C(=O)O)[C@@H](C)O)NC(=O)[C@H](Cc4c[nH]cn4)NC(=O)[C@H](CSSC[C@H](NC(=O)[C@H](CCC(N)=O)NC(=O)[C@H](CCCCN)NC(=O)[C@H](CO)NC1=O)C(=O)N[C@@H](CC(C)C)C(=O)N[C@@H](CCCCN)C(=O)N1CCC[C@H]1C(=O)N3)NC(=O)[C@H](CCCCN)NC(=O)CNC(=O)[C@H](CC(N)=O)NC(=O)[C@H](CCSC)NC2=O (Ac-GVIINVKCKISKQCLKPCRDAGMRFGKCMNGKCHCTPK-OH; disulfide 8-28, 14-33, 18-35)",0.0175
3,"CC[C@H](C)[C@@H]1NC(=O)[C@H](CCCCN)NC(=O)[C@@H](N)CSSC[C@@H]2NC(=O)[C@H](CCCCN)NC(=O)CNC(=O)[C@H](Cc3ccccc3)NC(=O)[C@H](CCCNC(=N)N)NC(=O)[C@H](CCSC)NC(=O)CNC(=O)[C@H](C)NC(=O)[C@H](CC(=O)O)NC(=O)[C@H](CCCCN)NC(=O)[C@@H]3CSSC[C@@H](C(=O)N[C@H](C(=O)N4CCC[C@H]4C(=O)N[C@@H](CCCCN)C(=O)O)[C@@H](C)O)NC(=O)[C@H](Cc4c[nH]cn4)NC(=O)[C@H](CSSC[C@H](NC(=O)[C@H](CCC(N)=O)NC(=O)[C@H](CCCNC(=N)N)NC(=O)[C@H](CO)NC1=O)C(=O)N[C@@H](CC(C)C)C(=O)N[C@@H](CCCCN)C(=O)N1CCC[C@H]1C(=O)N3)NC(=O)[C@H](CCCCN)NC(=O)CNC(=O)[C@H](CC(N)=O)NC(=O)[C@H](CCSC)NC2=O (H-CKISRQCLKPCKDAGMRFGKCMNGKCHCTPK-OH; disulfide 1-21, 7-26, 11-28)",0.015
4,"CC[C@H](C)[C@@H]1NC(=O)[C@H](CCCCN)NC(=O)[C@@H](NC(=O)[C@H](CCCCN)NC(=O)[C@@H](NC(=O)[C@H](CC(N)=O)NC(=O)[C@@H](NC(=O)[C@@H](NC(=O)[C@@H](NC(=O)CN)C(C)C)[C@@H](C)CC)[C@@H](C)CC)C(C)C)CSSC[C@@H]2NC(=O)[C@H](CCCCN)NC(=O)CNC(=O)[C@H](Cc3ccccc3)NC(=O)[C@H](CCCNC(=N)N)NC(=O)[C@H](CCSC)NC(=O)CNC(=O)[C@H](C)NC(=O)[C@H](CC(=O)O)NC(=O)[C@H](CCCCN)NC(=O)[C@@H]3CSSC[C@@H](C(=O)N[C@H](C(=O)N4CCC[C@H]4C(=O)N[C@@H](CCCCN)C(=O)O)[C@@H](C)O)NC(=O)[C@H](Cc4c[nH]cn4)NC(=O)[C@H](CSSC[C@H](NC(=O)[C@H](CCC(N)=O)NC(=O)[C@@H]4CCCN4C(=O)[C@H](CO)NC1=O)C(=O)N[C@@H](CC(C)C)C(=O)N[C@@H](CCCCN)C(=O)N1CCC[C@H]1C(=O)N3)NC(=O)[C@H](CCCCN)NC(=O)CNC(=O)[C@H](CC(N)=O)NC(=O)[C@H](CCSC)NC2=O (H-GVIINVKCKISPQCLKPCKDAGMRFGKCMNGKCHCTPK-OH; disulfide 8-28, 14-33, 18-35)",0.0075
5,"CC[C@H](C)[C@@H]1NC(=O)[C@H](CCCCN)NC(=O)[C@@H](NC(=O)[C@H](CCCCN)NC(=O)[C@@H](NC(=O)[C@H](CC(N)=O)NC(=O)[C@@H](NC(=O)[C@@H](NC(=O)[C@@H](NC(=O)CN)C(C)C)[C@@H](C)CC)[C@@H](C)CC)C(C)C)CSSC[C@@H]2NC(=O)[C@H](CCCCN)NC(=O)CNC(=O)[C@H](Cc3ccccc3)NC(=O)[C@H](CCCNC(=N)N)NC(=O)[C@H](CCSC)NC(=O)CNC(=O)[C@H](C)NC(=O)[C@H](CC(=O)O)NC(=O)[C@H](CCCCN)NC(=O)[C@@H]3CSSC[C@@H](C(=O)O)NC(=O)[C@H](Cc4c[nH]cn4)NC(=O)[C@H](CSSC[C@H](NC(=O)[C@H](CCC(N)=O)NC(=O)[C@H](CCCNC(=N)N)NC(=O)[C@H](CO)NC1=O)C(=O)N[C@@H](CC(C)C)C(=O)N[C@@H](CCCCN)C(=O)N1CCC[C@H]1C(=O)N3)NC(=O)[C@H](CCCCN)NC(=O)CNC(=O)[C@H](CC(N)=O)NC(=O)[C@H](CCSC)NC2=O (H-GVIINVKCKISRQCLKPCKDAGMRFGKCMNGKCHC-OH; disulfide 8-28, 14-33, 18-35)",0.8
6,"CC[C@H](C)[C@@H]1NC(=O)[C@H](CCCCN)NC(=O)[C@@H](NC(=O)[C@H](CCCCN)NC(=O)[C@@H](NC(=O)[C@H](CC(N)=O)NC(=O)[C@@H](NC(=O)[C@@H](NC(=O)[C@@H](NC(=O)CN)C(C)C)[C@@H](C)CC)[C@@H](C)CC)C(C)C)CSSC[C@@H]2NC(=O)[C@H](CCCCN)NC(=O)CNC(=O)[C@H](CC(N)=O)NC(=O)[C@H](CCCNC(=N)N)NC(=O)[C@H](CCSC)NC(=O)CNC(=O)[C@H](C)NC(=O)[C@H](CC(=O)O)NC(=O)[C@H](CCCCN)NC(=O)[C@@H]3CSSC[C@@H](C(=O)N[C@H](C(=O)N4CCC[C@H]4C(=O)N[C@@H](CCCCN)C(=O)O)[C@@H](C)O)NC(=O)[C@H](Cc4c[nH]cn4)NC(=O)[C@H](CSSC[C@H](NC(=O)[C@H](CCC(N)=O)NC(=O)[C@H](CCCNC(=N)N)NC(=O)[C@H](CO)NC1=O)C(=O)N[C@@H](CC(C)C)C(=O)N[C@@H](CCCCN)C(=O)N1CCC[C@H]1C(=O)N3)NC(=O)[C@H](CCCCN)NC(=O)CNC(=O)[C@H](CC(N)=O)NC(=O)[C@H](CCSC)NC2=O (H-GVIINVKCKISRQCLKPCKDAGMRNGKCMNGKCHCTPK-OH; disulfide 8-28, 14-33, 18-35)",0.0115
